# Target: T1, TLR9 (Homo sapiens, UniProt Q9NR96)
# T1 sequence (Q9NR96 26-1032): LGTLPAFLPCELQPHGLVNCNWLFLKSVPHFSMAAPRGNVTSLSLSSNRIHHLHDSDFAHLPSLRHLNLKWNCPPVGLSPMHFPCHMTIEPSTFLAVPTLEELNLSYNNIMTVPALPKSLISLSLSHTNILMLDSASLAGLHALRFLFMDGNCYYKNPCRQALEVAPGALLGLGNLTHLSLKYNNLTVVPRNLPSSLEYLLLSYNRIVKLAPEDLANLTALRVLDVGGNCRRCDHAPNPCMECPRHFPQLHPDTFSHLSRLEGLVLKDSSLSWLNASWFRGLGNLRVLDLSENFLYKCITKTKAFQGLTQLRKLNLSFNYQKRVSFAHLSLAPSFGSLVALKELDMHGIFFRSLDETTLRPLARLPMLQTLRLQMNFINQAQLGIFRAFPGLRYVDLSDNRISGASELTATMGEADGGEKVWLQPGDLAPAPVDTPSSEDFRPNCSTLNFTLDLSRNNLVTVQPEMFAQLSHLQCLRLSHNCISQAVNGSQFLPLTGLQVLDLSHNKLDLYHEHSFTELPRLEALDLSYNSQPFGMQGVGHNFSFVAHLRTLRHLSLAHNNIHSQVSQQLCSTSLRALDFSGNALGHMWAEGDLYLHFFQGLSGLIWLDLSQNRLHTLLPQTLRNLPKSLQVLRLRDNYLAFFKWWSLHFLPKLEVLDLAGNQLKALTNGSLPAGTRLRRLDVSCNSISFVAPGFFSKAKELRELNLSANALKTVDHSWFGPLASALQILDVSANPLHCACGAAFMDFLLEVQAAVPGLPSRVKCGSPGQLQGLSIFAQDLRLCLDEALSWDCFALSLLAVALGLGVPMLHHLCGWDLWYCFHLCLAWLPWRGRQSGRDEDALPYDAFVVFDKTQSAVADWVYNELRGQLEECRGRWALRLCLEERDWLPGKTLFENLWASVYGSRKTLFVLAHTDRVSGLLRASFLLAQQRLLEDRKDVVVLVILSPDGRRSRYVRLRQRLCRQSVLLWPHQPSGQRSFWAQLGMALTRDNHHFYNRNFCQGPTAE
# Assay: HEK293-Blue-hTLR-9 cells assay (SEAP reporter, ODN2006 stimulation)
# Assay type: cell-based
# Design: host or cells: HEK293 (HEK-Blue hTLR9)
# Conditions: HEK293-Blue-hTLR9 cells, ODN2006, 20 hrs; read-out: HEK/hTLR9 IC50
# Method: The following tests were carried out in order to determine the activity of the compounds of formula (I) and (Ia) in HEK293-Blue-hTLR-7/8/9 cells assay.
# A stable HEK293-Blue-hTLR-9 cell line was purchased from InvivoGen (Cat. #: hkb-htlr9, San Diego, California, USA). These cells were originally designed for studying the stimulation of human TLR9 by monitoring the activation of NF-κB. A SEAP (secreted embryonic alkaline phosphatase) reporter gene was placed under the control of the IFN-β minimal promoter fused to five NF-κB and AP-1-binding sites. The SEAP was induced by activating NF-κB and AP-1 via stimulating HEK-Blue hTLR9 cells with TLR9 ligands. Therefore the reporter expression was declined by TLR9 antagonist under the stimulation of a ligand, such as ODN2006 (Cat. #: tlrl-2006-1, Invivogen, San Diego, California, USA), for incubation of 20 hrs. The cell culture supernatant SEAP reporter activity was determined using QUANTI-Blue™ kit (Cat. #: rep-qb1, Invivogen, San Diego, California, USA) at a wavelength of 640 nm, a detection medium that turns purple or blue in the presence of alkaline phosphatase.
# HEK293-Blue-hTLR9 cells were incubated at a density of 250,000-450,000 cells/mL in a volume of 170 μL in a 96-well plate in Dulbecco's Modified Eagle's medium (DMEM) containing 4.5 g/L glucose, 50 U/mL penicillin, […], […], 2 mM L-glutamine, 10% (v/v) heat-inactivated fetal bovine serum with addition of 20 μL test compound in a serial dilution in the presence of final DMSO at 1% and 10 μL of 20 uM ODN2006 in above DMEM, perform incubation under 37° C. in a CO2 incubator for 20 hrs. Then 20 μL of the supernatant from each well was incubated with 180 μL Quanti-blue substrate solution at 37° C. for 2 h and the absorbance was read at 620˜655 nm using a spectrophotometer.
# The signaling pathway that TLR9 activation leads to downstream NF-κB activation has been widely accepted, and therefore similar reporter assay was modified for evaluating TLR9 antagonist.
row,SMILES,IC50
1,"CO[C@@H]1CN(c2cc3c(cn2)CN(c2cc(C)nc4c2cnn4C)C[C@@H]3C)C[C@H]1N [Example 78, (3R,4R)-4-methoxy-1-[(5R)-7-(1,6-dimethylpyrazolo[3,4-b]pyridin-4-yl)-5-methyl-6,8-dihydro-5H-2,7-naphthyridin-3-yl]pyrrolidin-3-amine]",335 nM
2,"C[C@H]1CN(c2ccnc3c2cnn3C)Cc2ccc(OC[C@H]3CNCCN3C)cc21 [Example 43, (4R)-4-methyl-2-(1-methylpyrazolo[3,4-b]pyridin-4-yl)-6-[[(2R)-1-methylpiperazin-2-yl]methoxy]-3,4-dihydro-1H-isoquinoline]",242 nM
3,"CO[C@@H]1CN(C2CCN(c3ccc4c(c3)[C@@H](C)CN(c3ccnc5c3cnn5C)C4)CC2)C[C@H]1N [Example 11, (3R,4R)-4-methoxy-1-[1-[(4R)-4-methyl-2-(1-methylpyrazolo[3,4-b]pyridin-4-yl)-3,4-dihydro-1H-isoquinolin-6-yl]-4-piperidyl]pyrrolidin-3-amine]",63 nM
4,"Cc1cc(N2Cc3ccc(N4CC5(CNCCO5)C4)nc3[C@@H](C)C2)c2cnn(C)c2n1 [Example 68, 2-[(8S)-6-(1,6-dimethylpyrazolo[3,4-b]pyridin-4-yl)-8-methyl-7,8-dihydro-5H-1,6-naphthyridin-2-yl]-5-oxa-2,8-diazaspiro[3.5]nonane]",332 nM
5,"CO[C@H]1CN(c2ccc3c(n2)[C@@H](C)CN(c2cc(C)nc4c2cnn4C)C3)CC[C@@H]1N [Example 65, (3S,4S)-3-methoxy-1-[(8S)-6-(1,6-dimethylpyrazolo[3,4-b]pyridin-4-yl)-8-methyl-7,8-dihydro-5H-1,6-naphthyridin-2-yl]piperidin-4-amine]",106 nM
6,"Cc1cc(N2Cc3ccc(N4CC5(CNCCO5)C4)cc3[C@@H](C)C2)c2cnn(C)c2n1 [Example 48, 2-[(4R)-2-(1,6-dimethylpyrazolo[3,4-b]pyridin-4-yl)-4-methyl-3,4-dihydro-1H-isoquinolin-6-yl]-5-oxa-2,8-diazaspiro[3.5]nonane]",229 nM
7,"Cc1cc(N2Cc3ccc(OC[C@H]4CNCCN4)cc3[C@@H](C)C2)c2cnn(C)c2n1 [Example 30, (4R)-2-(1,6-dimethylpyrazolo[3,4-b]pyridin-4-yl)-4-methyl-6-[[(2R)-piperazin-2-yl]methoxy]-3,4-dihydro-1H-isoquinoline]",88 nM
8,"C[C@H]1CN(c2ccnc3c2cnn3C)Cc2ccc(N3CCNCC3)cc21 [Example 1, (4R)-4-methyl-2-(1-methylpyrazolo[3,4-b]pyridin-4-yl)-6-piperazin-1-yl-3,4-dihydro-1H-isoquinoline]",198 nM
9,"CO[C@@H]1CN(c2ccc3c(n2)[C@@H](C)CN(c2cc(C)nc4c2cnn4C)C3)C[C@H]1N [Example 63, (3R,4R)-4-methoxy-1-[(8S)-6-(1,6-dimethylpyrazolo[3,4-b]pyridin-4-yl)-8-methyl-7,8-dihydro-5H-1,6-naphthyridin-2-yl]pyrrolidin-3-amine]",236 nM
10,"C[C@H]1CN(c2ccnc3c2cnn3C)Cc2ccc(N3C[C@H]4CCNC[C@H]4C3=O)cc21 (single isomer, unassigned) [Example 56]",254 nM
11,"Cc1cc(N2Cc3ccc(N4CCNCC4)nc3[C@H](C)C2)c2cnn(C)c2n1 [Example 72, (8R)-6-(1,6-dimethylpyrazolo[3,4-b]pyridin-4-yl)-8-methyl-2-piperazin-1-yl-7,8-dihydro-5H-1,6-naphthyridine]",113 nM
12,"C[C@H]1CN(c2ccnc3c2cnn3C)Cc2ccc(O[C@@H]3C[C@H]4CNCCN4C3)cc21 [Example 42, (4R)-4-methyl-2-(1-methylpyrazolo[3,4-b]pyridin-4-yl)-6-[[(7R,8aS)-1,2,3,4,6,7,8,8a-octahydropyrrolo[1,2-a]pyrazin-7-yl]oxy]-3,4-dihydro-1H-isoquinoline]",398 nM
13,"Cn1ncc2c(N3Cc4ccc(N5CCC6(CCNCC6)CC5)cc4C(C)(C)C3)ccnc21 [Example 6, 3-[4,4-dimethyl-2-(1-methylpyrazolo[3,4-b]pyridin-4-yl)-1,3-dihydroisoquinolin-6-yl]-3,9-diazaspiro[5.5]undecane]",112 nM
14,"Cc1cc(N2Cc3ccc(N4CCC5(CCNCC5)CC4)cc3C(C)C2)c2cnn(C)c2n1 (stereo not shown) [Example 5, 3-[2-(1,6-dimethylpyrazolo[3,4-b]pyridin-4-yl)-4-methyl-3,4-dihydro-1H-isoquinolin-6-yl]-3,9-diazaspiro[5.5]undecane]",123 nM
15,"CO[C@@H]1CN(c2ccc3c(c2)[C@@H](C)CN(c2ccnc4c2cnn4C)C3)C[C@H]1N [Example 20, (3R,4R)-4-methoxy-1-[(4R)-4-methyl-2-(1-methylpyrazolo[3,4-b]pyridin-4-yl)-3,4-dihydro-1H-isoquinolin-6-yl]pyrrolidin-3-amine]",239 nM

# Next, values leading:
row,IC50,SMILES
1,326 nM,"C[C@H]1CN(c2ccnc3c2cnn3C)Cc2ccc(OCCN3CCNCC3)cc21 [Example 40, (4R)-4-methyl-2-(1-methylpyrazolo[3,4-b]pyridin-4-yl)-6-(2-piperazin-1-ylethoxy)-3,4-dihydro-1H-isoquinoline]"
2,147 nM,"C[C@H]1CN(c2ccnc3c2cnn3C)Cc2ccc(N3CCN(CCN(C)C)CC3)cc21 [Example 38, N,N-dimethyl-2-[4-[(4R)-4-methyl-2-(1-methylpyrazolo[3,4-b]pyridin-4-yl)-3,4-dihydro-1H-isoquinolin-6-yl]piperazin-1-yl]ethanamine]"
3,365 nM,"C[C@H]1CN(c2ccnc3c2cnn3C)Cc2ccc(N3CCN[C@H](CO)C3)cc21 [Example 51, [(2S)-4-[(4R)-4-methyl-2-(1-methylpyrazolo[3,4-b]pyridin-4-yl)-3,4-dihydro-1H-isoquinolin-6-yl]piperazin-2-yl]methanol]"
4,106 nM,"C[C@H]1CN(c2ccnc3c2cnn3C)Cc2ccc(N3CCC(N4CC[C@@H](N)[C@H](O)C4)CC3)cc21 [Example 29, trans-4-amino-1-[1-[(4R)-4-methyl-2-(1-methylpyrazolo[3,4-b]pyridin-4-yl)-3,4-dihydro-1H-isoquinolin-6-yl]-4-piperidyl]piperidin-3-ol]"
5,222 nM,"C[C@H]1CN(c2ccnc3c2cnn3C)Cc2ccc(N3CCN(Cc4cn(C)cn4)CC3)cc21 [Example 37, (4R)-4-methyl-6-[4-[(1-methylimidazol-4-yl)methyl]piperazin-1-yl]-2-(1-methylpyrazolo[3,4-b]pyridin-4-yl)-3,4-dihydro-1H-isoquinoline]"
6,275 nM,"CC1CN(c2ccnc3c2cnn3C)Cc2ccc(N3CCC4(CCNCC4)CC3)cc21 (stereo not shown) [Example 4, 3-[4-methyl-2-(1-methylpyrazolo[3,4-b]pyridin-4-yl)-3,4-dihydro-1H-isoquinolin-6-yl]-3,9-diazaspiro[5.5]undecane]"
7,309 nM,"CC1CN(c2ccc3c(c2)[C@@H](C)CN(c2ccnc4c2cnn4C)C3)CCN1 (stereo partly drawn) [Example 15, (4R)-4-methyl-6-(3-methylpiperazin-1-yl)-2-(1-methylpyrazolo[3,4-b]pyridin-4-yl)-3,4-dihydro-1H-isoquinoline]"
